Test system: 379773-124-R-J2-PDC complex spheroids, viability % test/control
Assay: Anticancer human tumor 379773-124-R-J2-PDC patient-derived endometrial carcinoma cell line growth inhibition [CLK]
Details: for IC50: curve of first compound; for viability, T/C: stronger effect = lower value
How it was run: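 Patient-derived tumor cells grown as complex spheroids with HUVEC endothelial cells and mesenchymal stem cells, treated with drug combinations. Concentrations descend in half-log steps from near clinical Cmax, or from 10 microM if Cmax unknown.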
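Also: compound exposure lasted seven days before the viability readout.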
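For viability, T/C in this document: 100% = DMSO vehicle control wells.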

IC50 (second compound 0.0316 µM): 13.7 nM | IC50 (second compound 0.1 µM): < 0.316 nM | IC50 (second compound 0.316 µM): < 0.316 nM | IC50 (second compound 1 µM): < 0.316 nM | IC50 (second compound 3.16 µM): < 0.316 nM | IC50 (second compound 10 µM): < 0.316 nM
Compound: Cn1ncnc1[C@H]1c2n[nH]c(=O)c3cc(F)cc(c23)N[C@@H]1c1ccc(F)cc1 + CNC(=O)c1ccc(Nc2nc(OC3CCCC3)c3c(-c4ccc5nc(C)oc5c4)c[nH]c3n2)c(OC)c1
viability, T/C (second compound 0.0316 µM, first compound 0.000316 µM): 71.4% | viability, T/C (second compound 0.0316 µM, first compound 0.001 µM): 64.9% | viability, T/C (second compound 0.0316 µM, first compound 0.00316 µM): 65.7% | viability, T/C (second compound 0.0316 µM, first compound 0.01 µM): 56.2% | viability, T/C (second compound 0.0316 µM, first compound 0.0316 µM): 34.6% | viability, T/C (second compound 0.0316 µM, first compound 0.1 µM): 14.7% | viability, T/C (second compound 0.1 µM, first compound 0.000316 µM): 41.1% | viability, T/C (second compound 0.1 µM, first compound 0.001 µM): 35.1% | viability, T/C (second compound 0.1 µM, first compound 0.00316 µM): 26.6% | viability, T/C (second compound 0.1 µM, first compound 0.01 µM): 26.9% | viability, T/C (second compound 0.1 µM, first compound 0.0316 µM): 17.6% | viability, T/C (second compound 0.1 µM, first compound 0.1 µM): 13.1% | viability, T/C (second compound 0.316 µM, first compound 0.000316 µM): 39% | viability, T/C (second compound 0.316 µM, first compound 0.001 µM): 38.5% | viability, T/C (second compound 0.316 µM, first compound 0.00316 µM): 32.1% | viability, T/C (second compound 0.316 µM, first compound 0.01 µM): 27.2% | viability, T/C (second compound 0.316 µM, first compound 0.0316 µM): 17.1% | viability, T/C (second compound 0.316 µM, first compound 0.1 µM): 8.94% | viability, T/C (second compound 1 µM, first compound 0.000316 µM): 39.4% | viability, T/C (second compound 1 µM, first compound 0.001 µM): 30.3% | viability, T/C (second compound 1 µM, first compound 0.00316 µM): 27.8% | viability, T/C (second compound 1 µM, first compound 0.01 µM): 21.5% | viability, T/C (second compound 1 µM, first compound 0.0316 µM): 14% | viability, T/C (second compound 1 µM, first compound 0.1 µM): 7.18% | viability, T/C (second compound 3.16 µM, first compound 0.000316 µM): 35.4% | viability, T/C (second compound 3.16 µM, first compound 0.001 µM): 31.1% | viability, T/C (second compound 3.16 µM, first compound 0.00316 µM): 24.1% | viability, T/C (second compound 3.16 µM, first compound 0.01 µM): 25.2% | viability, T/C (second compound 3.16 µM, first compound 0.0316 µM): 16.6% | viability, T/C (second compound 3.16 µM, first compound 0.1 µM): 10.1% | viability, T/C (second compound 10 µM, first compound 0.000316 µM): 25.4% | viability, T/C (second compound 10 µM, first compound 0.001 µM): 30.7% | viability, T/C (second compound 10 µM, first compound 0.00316 µM): 23.5% | viability, T/C (second compound 10 µM, first compound 0.01 µM): 19.1% | viability, T/C (second compound 10 µM, first compound 0.0316 µM): 15.1% | viability, T/C (second compound 10 µM, first compound 0.1 µM): 9.79%

Source: PubChem BioAssay AID2060604 (Molecular Pharmacology Branch, DTP, NCI, 2025)
